In ChEMBL document CHEMBL1759836, “Microwave assisted one-pot synthesis of highly potent novel isoniazid analogues” (Bioorg Med Chem Lett, 2011):
≈ marks a conversion by molar mass, not a printed value.

How the values were obtained:
[1] = Cytotoxicity against african green monkey Vero cells after 72 hrs by MTT assay; type: cell-based; conditions: chlorocebus sabaeus
[2] = system: Mycobacterium tuberculosis; assay: Antimicrobial activity against Mycobacterium tuberculosis H37Rv by agar dilution method; type: functional
[3] = system: Mycobacterium tuberculosis; assay: Antimicrobial activity against multidrug-resisntat Mycobacterium tuberculosis by agar dilution method; type: functional
[4] = Selectivity index, ratio of CC50 for african green monkey Vero cells to MIC for Mycobacterium tuberculosis H37Rv; type: functional

CC1(C)CC(=O)C2=C(C1)N(NC(=O)c1ccncc1)C1=C(C(=O)CC(C)(C)C1)C2c1ccc(Br)cc1 gave a CC50 at 72 h [1] of under 114 µM, an MIC [2] of 0.73 µM (≈ 0.4 µg/mL) and an MIC [3] of 2.84 µM (≈ 1.56 µg/mL).
COc1cc(C2C3=C(CC(C)(C)CC3=O)N(NC(=O)c3ccncc3)C3=C2C(=O)CC(C)(C)C3)ccc1O gave an MIC [2] of 3.02 µM (≈ 1.56 µg/mL).
With CC1(C)CC(=O)C2=C(C1)N(NC(=O)c1ccncc1)C1=C(C(=O)CC(C)(C)C1)C2c1cccc(C(F)(F)F)c1 the “Selectivity Index” value [4] was over 645, the CC50 at 72 h [1] was over 116 µM and the MIC [2] was 0.18 µM (≈ 0.0968 µg/mL). It also gave an MIC [3] of 1.45 µM (≈ 0.779 µg/mL).
Work on Cc1ccc(C2C3=C(CC(C)(C)CC3=O)N(NC(=O)c3ccncc3)C3=C2C(=O)CC(C)(C)C3)cc1 yielded an MIC [2] of 6.44 µM (≈ 3.11 µg/mL).
Work on CC1(C)CC(=O)C2=C(C1)N(NC(=O)c1ccncc1)C1=C(C(=O)CC(C)(C)C1)C2c1cccc([N+](=O)[O-])c1 yielded a CC50 at 72 h [1] of under 121 µM, an MIC [2] of 0.77 µM (≈ 0.396 µg/mL) and an MIC [3] of 3.03 µM (≈ 1.56 µg/mL).
In the case of CC1(C)CC(=O)C2=C(C1)N(NC(=O)c1ccncc1)C1=C(C(=O)CC(C)(C)C1)C2c1ccccc1Br, the CC50 at 72 h [1] is reported as over 114 µM, the MIC [2] is reported as 0.18 µM (≈ 0.0987 µg/mL) and the MIC [3] is reported as 2.84 µM (≈ 1.56 µg/mL).
COc1ccc(C2C3=C(CC(C)(C)CC3=O)N(NC(=O)c3ccncc3)C3=C2C(=O)CC(C)(C)C3)cc1 showed an MIC [2] of 12.5 µM (≈ 6.25 µg/mL).
Molecule Cc1ccccc1C1C2=C(CC(C)(C)CC2=O)N(NC(=O)c2ccncc2)C2=C1C(=O)CC(C)(C)C2 has an MIC [2] of 3.22 µM (≈ 1.56 µg/mL).
Work on NNC(=O)c1ccncc1 [ISONIAZID] yielded a CC50 at 72 h [1] of over 456 µM, an MIC [2] of 0.73 µM (≈ 0.1 µg/mL) and an MIC [3] of 45.6 µM (≈ 6.25 µg/mL).
With CC(C)c1ccc(C2C3=C(CC(C)(C)CC3=O)N(NC(=O)c3ccncc3)C3=C2C(=O)CC(C)(C)C3)cc1 the MIC [2] was 1.52 µM (≈ 0.778 µg/mL).
Work on CC1(C)CC(=O)C2=C(C1)N(NC(=O)c1ccncc1)C1=C(C(=O)CC(C)(C)C1)C2c1ccccc1C(F)(F)F yielded a CC50 at 72 h [1] of over 116 µM, an MIC [2] of 0.36 µM (≈ 0.194 µg/mL) and an MIC [3] of 1.45 µM (≈ 0.779 µg/mL).
With CC1(C)CC(=O)C2=C(C1)N(NC(=O)c1ccncc1)C1=C(C(=O)CC(C)(C)C1)C2c1cccc(Br)c1 the CC50 at 72 h [1] was under 114 µM, the MIC [2] was 0.73 µM (≈ 0.4 µg/mL) and the MIC [3] was 2.84 µM (≈ 1.56 µg/mL).
Work on COc1ccccc1C1C2=C(CC(C)(C)CC2=O)N(NC(=O)c2ccncc2)C2=C1C(=O)CC(C)(C)C2 yielded an MIC [2] of 12.5 µM (≈ 6.25 µg/mL).
Molecule CC1(C)CC(=O)C2=C(C1)N(NC(=O)c1ccncc1)C1=C(C(=O)CC(C)(C)C1)C2c1ccccc1[N+](=O)[O-] has a CC50 at 72 h [1] of under 121 µM, an MIC [2] of 0.19 µM (≈ 0.0978 µg/mL) and an MIC [3] of 1.51 µM (≈ 0.777 µg/mL).
For CC1(C)CC(=O)C2=C(C1)N(NC(=O)c1ccncc1)C1=C(C(=O)CC(C)(C)C1)C2c1ccccc1O, the MIC [2] was over 12.9 µM.
CC1(C)CC(=O)C2=C(C1)N(NC(=O)c1ccncc1)C1=C(C(=O)CC(C)(C)C1)C2c1ccc(OCc2ccccc2)cc1 showed a CC50 at 72 h [1] of over 109 µM, an MIC [2] of 0.17 µM (≈ 0.0979 µg/mL) and an MIC [3] of 0.69 µM (≈ 0.397 µg/mL).
In the case of CC1(C)CC(=O)C2=C(C1)N(NC(=O)c1ccncc1)C1=C(C(=O)CC(C)(C)C1)C2c1ccc(Cl)cc1, the CC50 at 72 h [1] is reported as over 124 µM, the MIC [2] is reported as 0.79 µM (≈ 0.398 µg/mL) and the MIC [3] is reported as 1.54 µM (≈ 0.776 µg/mL).
Work on CC1(C)CC(=O)C2=C(C1)N(NC(=O)c1ccncc1)C1=C(C(=O)CC(C)(C)C1)C2c1cccc(O)c1 yielded an MIC [2] of over 12.9 µM.
CN(C)c1ccc(C2C3=C(CC(C)(C)CC3=O)N(NC(=O)c3ccncc3)C3=C2C(=O)CC(C)(C)C3)cc1 showed an MIC [2] of 6.1 µM (≈ 3.13 µg/mL).
With CC1(C)CC(=O)C2=C(C1)N(NC(=O)c1ccncc1)C1=C(C(=O)CC(C)(C)C1)C2c1ccc(C(F)(F)F)cc1 the CC50 at 72 h [1] was over 116 µM, the MIC [2] was 0.36 µM (≈ 0.194 µg/mL) and the MIC [3] was 0.74 µM (≈ 0.398 µg/mL).
CC1(C)CC(=O)C2=C(C1)N(NC(=O)c1ccncc1)C1=C(C(=O)CC(C)(C)C1)C2c1cccc(OCc2ccccc2)c1 gave a CC50 at 72 h [1] of over 109 µM, an MIC [2] of 0.17 µM (≈ 0.0979 µg/mL) and an MIC [3] of 1.35 µM (≈ 0.777 µg/mL).
Molecule CC1(C)CC(=O)C2=C(C1)N(NC(=O)c1ccncc1)C1=C(C(=O)CC(C)(C)C1)C2c1ccc([N+](=O)[O-])cc1 has a CC50 at 72 h [1] of under 121 µM, an MIC [2] of 0.77 µM (≈ 0.396 µg/mL) and an MIC [3] of 3.03 µM (≈ 1.56 µg/mL).
In the case of COc1ccc(C2C3=C(CC(C)(C)CC3=O)N(NC(=O)c3ccncc3)C3=C2C(=O)CC(C)(C)C3)c(OC)c1OC, the MIC [2] is reported as 11.2 µM (≈ 6.25 µg/mL).
For CC1(C)CC(=O)C2=C(C1)N(NC(=O)c1ccncc1)C1=C(C(=O)CC(C)(C)C1)C2c1cccc(F)c1, the CC50 at 72 h [1] was over 128 µM, the MIC [2] was 0.41 µM (≈ 0.2 µg/mL) and the MIC [3] was 0.82 µM (≈ 0.4 µg/mL).
CC1(C)CC(=O)C2=C(C1)N(NC(=O)c1ccncc1)C1=C(C(=O)CC(C)(C)C1)C2c1ccccc1F gave a CC50 at 72 h [1] of over 128 µM, an MIC [2] of 0.41 µM (≈ 0.2 µg/mL) and an MIC [3] of 1.59 µM (≈ 0.775 µg/mL).
For CC1(C)CC(=O)C2=C(C1)N(NC(=O)c1ccncc1)C1=C(C(=O)CC(C)(C)C1)C2c1ccccc1OCc1ccccc1, the CC50 at 72 h [1] was over 109 µM, the MIC [2] was under 0.17 µM and the MIC [3] was 0.69 µM (≈ 0.397 µg/mL).
With Cc1cccc(C2C3=C(CC(C)(C)CC3=O)N(NC(=O)c3ccncc3)C3=C2C(=O)CC(C)(C)C3)c1 the MIC [2] was 6.44 µM (≈ 3.11 µg/mL).
Molecule CC1(C)CC(=O)C2=C(C1)N(NC(=O)c1ccncc1)C1=C(C(=O)CC(C)(C)C1)C2c1ccc(F)cc1 has a CC50 at 72 h [1] of over 128 µM, an MIC [2] of 0.2 µM (≈ 0.0975 µg/mL) and an MIC [3] of 0.2 µM (≈ 0.0975 µg/mL).
In the case of CC1(C)CC(=O)C2=C(C1)N(NC(=O)c1ccncc1)C1=C(C(=O)CC(C)(C)C1)C2c1ccccc1, the MIC [2] is reported as 6.66 µM (≈ 3.13 µg/mL).
Molecule CC1(C)CC(=O)C2=C(C1)N(NC(=O)c1ccncc1)C1=C(C(=O)CC(C)(C)C1)C2c1ccc(O)cc1 has an MIC [2] of 12.9 µM (≈ 6.25 µg/mL).
